Measurements taken from ChEMBL document CHEMBL5528067, “From Synergy to Monotherapy: Discovery of Novel 2,4,6-Trisubstituted Triazine Hydrazone Derivatives with Potent Antifungal Potency In Vitro and In Vivo” (J Med Chem, 2024).
Converted amounts (≈) assume the structure as drawn.

Assays:
Type in all cases: functional
[1] = system: Candida parapsilosis; test: Antifungal activity against Candida parapsilosis 22019 assessed as growth inhibition measured after 48 hrs incubation by CLSI based micro-dilution broth method; details: Lodderomyces parapsilosis
[2] = system: [Candida] auris; test: Antifungal activity against FCZ-resistant Candida auris 919 assessed as growth inhibition measured after 48 hrs incubation by CLSI based micro-dilution broth method; details: Candidozyma auris
[3] = system: Candida tropicalis; test: Antifungal activity against Candida tropicalis 8915 assessed as growth inhibition measured after 48 hrs incubation by CLSI based micro-dilution broth method
[4] = system: Pichia kudriavzevii; test: Antifungal activity against Candida krusei 4996 assessed as growth inhibition measured after 48 hrs incubation by CLSI based micro-dilution broth method
[5] = system: Candida albicans; test: Antifungal activity against FCZ-resistant Candida albicans SC5314 assessed as growth inhibition measured after 48 hrs incubation by CLSI based micro-dilution broth method
[6] = system: Cryptococcus neoformans; test: Antifungal activity against Cryptococcus neoformans 32609 assessed as growth inhibition measured after 48 hrs incubation by CLSI based micro-dilution broth method
[7] = system: Nakaseomyces glabratus; test: Antifungal activity against Candida glabrata 537 assessed as growth inhibition measured after 48 hrs incubation by CLSI based micro-dilution broth method
[8] = system: [Candida] auris; test: Antifungal activity against FCZ-resistant Candida auris 918 assessed as growth inhibition measured after 48 hrs incubation by CLSI based micro-dilution broth method; details: Candidozyma auris
[9] = system: Candida albicans; test: Antifungal activity against FCZ-resistant Candida albicans 10231 assessed as growth inhibition measured after 48 hrs incubation by CLSI based micro-dilution broth method
[10] = system: Candida albicans; test: Antifungal activity against FCZ-resistant Candida albicans strain 904 assessed as growth inhibition in presence of fluconazole measured after 48 hrs incubation by CLSI based micro-dilution broth method
[11] = system: Candida albicans; test: Antifungal activity against FCZ-resistant Candida albicans strain 904 assessed as growth inhibition measured after 48 hrs incubation by CLSI based micro-dilution broth method
[12] = system: Candida albicans; test: Antifungal activity against FCZ-resistant Candida albicans strain 901 assessed as growth inhibition measured after 48 hrs incubation by CLSI based micro-dilution broth method
[13] = system: Candida albicans; test: Synergistic antifungal activity against FCZ-resistant Candida albicans strain 904 assessed as fractional inhibitory concentration index measured after 48 hrs in presence of FCZ by CLSI based micro-dilution broth method
[14] = system: Candida albicans; test: Antifungal activity against FCZ-resistant Candida albicans strain 901 assessed as growth inhibition in presence of fluconazole measured after 48 hrs incubation by CLSI based micro-dilution broth method
[15] = system: Candida albicans; test: Synergistic antifungal activity against FCZ-resistant Candida albicans strain 901 assessed as fractional inhibitory concentration index measured after 48 hrs in presence of FCZ by CLSI based micro-dilution broth method

| SMILES | MIC80 [1] | MIC80 [2] | MIC80 [3] | MIC80 [4] | MIC80 [5] | MIC80 [6] | MIC80 [7] | MIC80 [8] | MIC80 [9] | MIC80 [10] | MIC80 [11] | MIC80 [12] | fractional inhibitory concentration index (FICI) [13] | MIC80 [14] | fractional inhibitory concentration index (FICI) [15] |
| --- | --- | --- | --- | --- | --- | --- | --- | --- | --- | --- | --- | --- | --- | --- | --- |
| COc1ccc(Nc2nc(NCc3ccco3)nc(N/N=C/c3cc([N+](=O)[O-])ccc3O)n2)cc1 | 4 µg/mL (≈ 8.4 µM) | 8 µg/mL (≈ 16.8 µM) | 4 µg/mL (≈ 8.4 µM) | 1 µg/mL (≈ 2.1 µM) | 2 µg/mL (≈ 4.2 µM) | 2 µg/mL (≈ 4.2 µM) | 0.5 µg/mL (≈ 1.05 µM) | 8 µg/mL (≈ 16.8 µM) | 8 µg/mL (≈ 16.8 µM) | – | – | – | – | – | – |
| O=[N+]([O-])c1ccc(O)c(/C=N/Nc2nc(N3CCOCC3)nc(N3CCOCC3)n2)c1 | > 64 µg/mL | > 64 µg/mL | > 64 µg/mL | > 64 µg/mL | > 64 µg/mL | > 64 µg/mL | > 64 µg/mL | > 64 µg/mL | > 64 µg/mL | – | – | – | – | – | – |
| COc1ccc(Nc2nc(N/N=C/c3cc([N+](=O)[O-])ccc3O)nc(Nc3ccc(OC)cc3)n2)cc1 | > 64 µg/mL | > 64 µg/mL | 4 µg/mL (≈ 7.96 µM) | 1 µg/mL (≈ 1.99 µM) | 2 µg/mL (≈ 3.98 µM) | 2 µg/mL (≈ 3.98 µM) | 2 µg/mL (≈ 3.98 µM) | > 64 µg/mL | 16 µg/mL (≈ 31.8 µM) | – | – | – | – | – | – |
| COc1ccc(Nc2nc(NCc3ccc(F)cc3)nc(N/N=C/c3cc([N+](=O)[O-])ccc3O)n2)cc1 | 8 µg/mL (≈ 15.9 µM) | 32 µg/mL (≈ 63.4 µM) | 2 µg/mL (≈ 3.96 µM) | 1 µg/mL (≈ 1.98 µM) | 2 µg/mL (≈ 3.96 µM) | 2 µg/mL (≈ 3.96 µM) | 0.5 µg/mL (≈ 0.991 µM) | 32 µg/mL (≈ 63.4 µM) | 16 µg/mL (≈ 31.7 µM) | – | – | – | – | – | – |
| O=[N+]([O-])c1ccc(O)c(/C=N/Nc2nc(NCc3ccco3)nc(NCc3ccco3)n2)c1 | 4 µg/mL (≈ 8.88 µM) | 4 µg/mL (≈ 8.88 µM) | 2 µg/mL (≈ 4.44 µM) | 1 µg/mL (≈ 2.22 µM) | 2 µg/mL (≈ 4.44 µM) | 2 µg/mL (≈ 4.44 µM) | 1 µg/mL (≈ 2.22 µM) | 4 µg/mL (≈ 8.88 µM) | 8 µg/mL (≈ 17.8 µM) | – | – | – | – | – | – |
| O=[N+]([O-])c1ccc(O)c(/C=N/Nc2nc(NCc3ccc(F)cc3)nc(NCc3ccco3)n2)c1 | 2 µg/mL (≈ 4.18 µM) | 4 µg/mL (≈ 8.36 µM) | 2 µg/mL (≈ 4.18 µM) | 1 µg/mL (≈ 2.09 µM) | 2 µg/mL (≈ 4.18 µM) | 2 µg/mL (≈ 4.18 µM) | 1 µg/mL (≈ 2.09 µM) | 2 µg/mL (≈ 4.18 µM) | 8 µg/mL (≈ 16.7 µM) | – | – | – | – | – | – |
| O=[N+]([O-])c1ccc(O)c(/C=N/Nc2nc(NCc3ccccc3)nc(NCc3ccc(F)cc3)n2)c1 | 4 µg/mL (≈ 8.19 µM) | 16 µg/mL (≈ 32.8 µM) | 2 µg/mL (≈ 4.09 µM) | 1 µg/mL (≈ 2.05 µM) | 2 µg/mL (≈ 4.09 µM) | 2 µg/mL (≈ 4.09 µM) | 0.5 µg/mL (≈ 1.02 µM) | 4 µg/mL (≈ 8.19 µM) | 8 µg/mL (≈ 16.4 µM) | – | – | – | – | – | – |
| Oc1ccccc1/C=N/Nc1nc(NCc2ccc(F)cc2)nc(NCc2ccc(F)cc2)n1 | 8 µg/mL (≈ 17.3 µM) | > 64 µg/mL | > 64 µg/mL | > 64 µg/mL | > 64 µg/mL | 8 µg/mL (≈ 17.3 µM) | 4 µg/mL (≈ 8.67 µM) | > 64 µg/mL | > 64 µg/mL | 0.5 µg/mL | 4 µg/mL (≈ 8.67 µM) | 4 µg/mL (≈ 8.67 µM) | 0.25 | 0.5 µg/mL | 0.25 |
| O=[N+]([O-])c1ccc(O)c(/C=N/Nc2nc(NCc3ccc(F)cc3)nc(N3CCOCC3)n2)c1 | 32 µg/mL (≈ 68.3 µM) | > 64 µg/mL | 4 µg/mL (≈ 8.54 µM) | 2 µg/mL (≈ 4.27 µM) | 4 µg/mL (≈ 8.54 µM) | 4 µg/mL (≈ 8.54 µM) | 1 µg/mL (≈ 2.13 µM) | > 64 µg/mL | 16 µg/mL (≈ 34.2 µM) | – | – | – | – | – | – |
| O=[N+]([O-])c1ccc(O)c(/C=N/Nc2nc(NCc3ccc(F)cc3)nc(Nc3ccc(F)cc3)n2)c1 | 8 µg/mL (≈ 16.2 µM) | 32 µg/mL (≈ 65 µM) | 2 µg/mL (≈ 4.06 µM) | 1 µg/mL (≈ 2.03 µM) | 2 µg/mL (≈ 4.06 µM) | 2 µg/mL (≈ 4.06 µM) | 0.5 µg/mL (≈ 1.02 µM) | 8 µg/mL (≈ 16.2 µM) | 8 µg/mL (≈ 16.2 µM) | – | – | – | – | – | – |
| O=[N+]([O-])c1ccc(O)c(/C=N/Nc2nc(NCc3ccc(F)cc3)nc(NCC3CCCCC3)n2)c1 | 2 µg/mL (≈ 4.04 µM) | 8 µg/mL (≈ 16.2 µM) | 2 µg/mL (≈ 4.04 µM) | 1 µg/mL (≈ 2.02 µM) | 2 µg/mL (≈ 4.04 µM) | 2 µg/mL (≈ 4.04 µM) | 1 µg/mL (≈ 2.02 µM) | 4 µg/mL (≈ 8.09 µM) | 16 µg/mL (≈ 32.4 µM) | – | – | – | – | – | – |
| O=[N+]([O-])c1ccc(/C=N/Nc2nc(NCc3ccc(F)cc3)nc(NCc3ccc(F)cc3)n2)c(O)c1 | > 64 µg/mL | > 64 µg/mL | > 64 µg/mL | > 64 µg/mL | > 64 µg/mL | > 64 µg/mL | 2 µg/mL (≈ 3.95 µM) | > 64 µg/mL | > 64 µg/mL | 0.5 µg/mL | 2 µg/mL (≈ 3.95 µM) | 2 µg/mL (≈ 3.95 µM) | 0.38 | 0.5 µg/mL | 0.38 |
| O=[N+]([O-])c1cccc(/C=N/Nc2nc(NCc3ccc(F)cc3)nc(NCc3ccc(F)cc3)n2)c1O | 2 µg/mL (≈ 3.95 µM) | 32 µg/mL (≈ 63.2 µM) | 2 µg/mL (≈ 3.95 µM) | 2 µg/mL (≈ 3.95 µM) | 8 µg/mL (≈ 15.8 µM) | 1 µg/mL (≈ 1.97 µM) | 1 µg/mL (≈ 1.97 µM) | 4 µg/mL (≈ 7.9 µM) | 32 µg/mL (≈ 63.2 µM) | 0.25 µg/mL | 1 µg/mL (≈ 1.97 µM) | 2 µg/mL (≈ 3.95 µM) | 0.38 | 0.25 µg/mL | 0.25 |
| Fc1ccc(CNc2nc(NCc3ccc(F)cc3)nc(N/N=C/c3ccc(C(F)(F)F)cc3)n2)cc1 | – | – | – | – | – | – | – | – | – | > 64 µg/mL | > 64 µg/mL | > 64 µg/mL | 1.13 | > 64 µg/mL | 1.13 |
